PubChem BioAssay (NCI)
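96-well plates; 48 h exposure; 5 concentrations. Endpoints by linear interpolation between flanking doses. Not reached: highest tested concentration assigned. Here, GI50 denotes the concentration required for 50% inhibition of growth. TGI: total growth inhibition.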

Tests used:
Test in all cases: NCI anticancer screen, dose series, 48 h
DU-145 prostate = test system: DU-145 prostate
MALME-3M melanoma = test system: MALME-3M melanoma
MCF7 breast = test system: MCF7 breast
BT-549 breast = test system: BT-549 breast
NCI-H460 lung = test system: NCI-H460 lung
SK-MEL-2 melanoma = test system: SK-MEL-2 melanoma
HCC-2998 colon = test system: HCC-2998 colon
HOP-92 NSCLC = test system: HOP-92 NSCLC
HS 578T breast = test system: HS 578T breast
EKVX NSCLC = test system: EKVX NSCLC
SK-MEL-5 melanoma = test system: SK-MEL-5 melanoma
SF-539 CNS = test system: SF-539 CNS
SK-OV-3 ovarian = test system: SK-OV-3 ovarian
PC-3 prostate = test system: PC-3 prostate
LOX IMVI melanoma = test system: LOX IMVI melanoma
SR leukemia = test system: SR leukemia
SNB-75 CNS = test system: SNB-75 CNS
OVCAR-5 ovarian = test system: OVCAR-5 ovarian
UACC-257 melanoma = test system: UACC-257 melanoma
786-0 renal = test system: 786-0 renal
UO-31 renal = test system: UO-31 renal
T-47D breast = test system: T-47D breast
A549 NSCLC = test system: A549 NSCLC
ACHN renal = test system: ACHN renal
U251 CNS = test system: U251 CNS
RXF 393 renal = test system: RXF 393 renal
OVCAR-4 ovarian = test system: OVCAR-4 ovarian
CAKI-1 renal = test system: CAKI-1 renal
HCT-116 colon = test system: HCT-116 colon
OVCAR-3 ovarian = test system: OVCAR-3 ovarian
COLO 205 colon = test system: COLO 205 colon
M14 melanoma = test system: M14 melanoma
KM12 colon = test system: KM12 colon
A498 renal = test system: A498 renal
MDA-MB-231 breast = test system: MDA-MB-231 breast
SF-295 CNS = test system: SF-295 CNS
HCT-15 colon = test system: HCT-15 colon
NCI-H522 lung = test system: NCI-H522 lung
HT29 colon = test system: HT29 colon
UACC-62 melanoma = test system: UACC-62 melanoma
SF-268 CNS = test system: SF-268 CNS
TK-10 renal = test system: TK-10 renal
SK-MEL-28 melanoma = test system: SK-MEL-28 melanoma
SW-620 colon = test system: SW-620 colon
MDA-MB-435 = test system: MDA-MB-435
HOP-62 NSCLC = test system: HOP-62 NSCLC

What does the source list for `CCNCCNc1cc(-c2ccc(Cl)c(Cl)c2)c(C#N)c2nc3ccccc3n12`?
GI50 (DU-145 prostate): 1440 nM; TGI (DU-145 prostate): 2760 nM; GI50 (MALME-3M melanoma): 1760 nM; TGI (MALME-3M melanoma): 3410 nM; GI50 (MCF7 breast): 1010 nM; TGI (MCF7 breast): 2460 nM; GI50 (BT-549 breast): 1540 nM; TGI (BT-549 breast): 2900 nM; GI50 (NCI-H460 lung): 485 nM; TGI (NCI-H460 lung): 1910 nM; GI50 (SK-MEL-2 melanoma): 1580 nM; TGI (SK-MEL-2 melanoma): 3070 nM; GI50 (HCC-2998 colon): 1690 nM; TGI (HCC-2998 colon): 3210 nM; GI50 (HOP-92 NSCLC): 1670 nM; TGI (HOP-92 NSCLC): 3280 nM; GI50 (HS 578T breast): 1900 nM; TGI (HS 578T breast): 4430 nM; GI50 (EKVX NSCLC): 1750 nM; TGI (EKVX NSCLC): 3330 nM; GI50 (SK-MEL-5 melanoma): 1710 nM; TGI (SK-MEL-5 melanoma): 3120 nM; GI50 (SF-539 CNS): 224 nM; TGI (SF-539 CNS): 580 nM; GI50 (SK-OV-3 ovarian): 1790 nM; TGI (SK-OV-3 ovarian): 3230 nM; GI50 (PC-3 prostate): 1660 nM; TGI (PC-3 prostate): 3190 nM; GI50 (LOX IMVI melanoma): 1210 nM; TGI (LOX IMVI melanoma): 2530 nM; GI50 (SR leukemia): 287 nM; TGI (SR leukemia): > 100000 nM; GI50 (SNB-75 CNS): 1460 nM; TGI (SNB-75 CNS): 2960 nM; GI50 (OVCAR-5 ovarian): 1870 nM; TGI (OVCAR-5 ovarian): 3550 nM; GI50 (UACC-257 melanoma): 1890 nM; TGI (UACC-257 melanoma): 3520 nM; GI50 (786-0 renal): 1660 nM; TGI (786-0 renal): 3180 nM; GI50 (UO-31 renal): 1600 nM; TGI (UO-31 renal): 3120 nM; GI50 (T-47D breast): 1430 nM; TGI (T-47D breast): 3200 nM; GI50 (A549 NSCLC): 1430 nM; TGI (A549 NSCLC): 3010 nM; GI50 (ACHN renal): 1390 nM; TGI (ACHN renal): 2870 nM; GI50 (U251 CNS): 757 nM; TGI (U251 CNS): 2150 nM; GI50 (RXF 393 renal): 1500 nM; TGI (RXF 393 renal): 2940 nM; GI50 (OVCAR-4 ovarian): 1230 nM; TGI (OVCAR-4 ovarian): 2530 nM; GI50 (CAKI-1 renal): 1560 nM; TGI (CAKI-1 renal): 2900 nM; GI50 (HCT-116 colon): 278 nM; TGI (HCT-116 colon): 1080 nM; GI50 (OVCAR-3 ovarian): 248 nM; TGI (OVCAR-3 ovarian): 580 nM; GI50 (COLO 205 colon): 421 nM; TGI (COLO 205 colon): 1630 nM; GI50 (M14 melanoma): 1720 nM; TGI (M14 melanoma): 3240 nM; GI50 (KM12 colon): 1600 nM; TGI (KM12 colon): 3150 nM; GI50 (A498 renal): 1380 nM; TGI (A498 renal): 2880 nM; GI50 (MDA-MB-231 breast): 1210 nM; TGI (MDA-MB-231 breast): 2710 nM; GI50 (SF-295 CNS): 1810 nM; TGI (SF-295 CNS): 3240 nM; GI50 (HCT-15 colon): 629 nM; TGI (HCT-15 colon): 1920 nM; GI50 (NCI-H522 lung): 1320 nM; TGI (NCI-H522 lung): 2800 nM; GI50 (HT29 colon): 369 nM; TGI (HT29 colon): 1420 nM; GI50 (UACC-62 melanoma): 1820 nM; TGI (UACC-62 melanoma): 3560 nM; GI50 (SF-268 CNS): 1710 nM; TGI (SF-268 CNS): 3330 nM; GI50 (TK-10 renal): 1690 nM; TGI (TK-10 renal): 3110 nM; GI50 (SK-MEL-28 melanoma): 1900 nM; TGI (SK-MEL-28 melanoma): 3540 nM; GI50 (SW-620 colon): 578 nM; TGI (SW-620 colon): 2070 nM; GI50 (MDA-MB-435): 1700 nM; TGI (MDA-MB-435): 3140 nM; GI50 (HOP-62 NSCLC): 1620 nM; TGI (HOP-62 NSCLC): 3180 nM
